Test results: patent publication US4703110A, “Benzoic acid derivatives having a para substituent which is a substituted phenyl group connected by a linking radical; useful in neoplastic cell differentiation and diagnosis” (Shudo; Koichi, priority 1984, dated 1987)

Key:
[1] = test system: human acute promyelocytic leukemia cells (HL-60); assay: Differentiation of HL-60 cells, morphological changes of nuclei (Wright-Giemsa); assay type: cell-based; details: HL-60, 4 days; test concentration not stated
Description: The HL-60 cells are cultured in plastic flasks in RPMI-1640 medium supplemented with 5% heat inactivated fetal calf serum and antibiotics (penicillin G and streptomycin). The cells (3×10^4 /ml) were cultured with a compound of the present invention for 4 days. Growth inhibition of the cells by the test compounds was determined by counting the number of cells by microscope and relative ratio was examined by taking the number of cells by control (without test compound) as 100%. The cells are fixed and stained with Wright-Giemsa to examine the morphological changes of the nuclei.

[2] = test system: human acute promyelocytic leukemia cells (HL-60); assay: Reduction of nitro-blue tetrazolium (NBT) by treated HL-60 cells; assay type: cell-based; details: HL-60, 5 days incubation, TPA 200 ng/ml, 0.1% NBT, 20 minutes at 37° C.
Description: The biochemical activity of cells treated with the compound was measured as follows:
The cells after 5 days incubation are centrifuged and diluted with RPMI-1640 medium supplemented with 5% fetal calf serum, to provide a definite number of the cells. To the diluted cell suspension are then added 200 ng/ml of […] (TPA) and the resulting culture medium is then incubated for 20 minutes at 37° C. in the presence of 0.1% of NBT. Thus, the mature differentiated cells containing blue-black formazan is counted by microscopy, so that the ratio of the cells having the ability to reduce NBT, to total cells, can be calculated.

[3] = test system: HL-60 transplanted to nude mice; assay: Treatment of nude mice transplanted with HL-60; assay type: in vivo, nude mouse (BALB/c, nu/nu); details: per os, 200 mg/kg/day, days 9, 14 and 17 after transplantation; measured 4, 6, 8 and 11 days after first administration
Description: A test of treatment of nude mice, to which HL-60 have been transplanted, with a compound of the present invention is performed as follows:
A test compound (e.g., p-(5,6,7,8-tetrahydro-5,5,8,8-tetramethyl-2-naphthylcarbamoyl)benzoic acid) is suspended in 10% (v/v) Tween 80 in a concentration of 10 mg/ml. Cells (5×10^7) of HL-60 were transplanted subcutaneously to a nude mouse (BALB/c, nu/nu female Nihon Clea).
At the end of days 9, 14 and 17 after the transplantation, 0.1 ml of the suspension per 10 g of body weight of mouse were administrated per os two times at intervals of 7 hours (200 mg/kg/day).

Structure (SMILES)	Banded and Segmented Neutrophils [1]	Myelocytes and Metamyelocytes [1]	Promyelocytes [1]	Reductivity of NBT [2]	Tumor growth [3]
CC(C)c1ccc(NC(=O)c2ccc(C(=O)O)cc2)cc1C(C)C [No. 30]	11%	82%	7%	90%	–
CC(C)c1ccc(N=Nc2ccc(C(=O)O)cc2)cc1C(C)C [No. 50]	11%	50%	39%	55%	–
COC(=O)c1ccc(C2OC2c2cccc(C(C)(C)C)c2)cc1 (stereo not shown) [H tBu H H H OCH3 drawing 9]	9%	69%	20%	70%	–
CC1(C)CCC(C)(C)c2cc(C(=O)C=Cc3ccc(C(=O)O)cc3)ccc21 [No. 11]	12%	86%	2%	95%	–
CCc1ccc(C(=O)C=Cc2ccc(C(=O)OC)cc2)cc1CC [H Et Et H H OCH3 drawing 7]	8%	54%	38%	72%	–
COC(=O)c1ccc(N=Nc2ccc3c(c2)C(C)(C)CCC3(C)C)cc1 [No. 57]	10%	49%	41%	60%	–
COC(=O)c1ccc(C=CC(=O)c2ccc3c(c2)C(C)(C)CCC3(C)C)cc1 [No. 13]	4%	91%	5%	97%	–
CC(C)(C)c1cc(C(=O)C=Cc2ccc(C(=O)O)cc2)cc(C(C)(C)C)c1 [No. 8]	16%	82%	2%	95%	–
COC(=O)c1ccc(C2OC2c2ccc3c(c2)C(C)(C)CCC3(C)C)cc1 (stereo not shown) [H drawing 10 H H OCH3 drawing 9]	18%	63%	19%	78%	–
COC(=O)c1ccc(C(=O)Nc2ccc3c(c2)C(C)(C)CCC3(C)C)cc1 [No. 34]	12%	85%	3%	97%	–
COC(=O)c1ccc(C2OC2(C)c2ccc3c(c2)C(C)(C)CCC3(C)C)cc1 (stereo not shown) [H drawing 10 H H OCH3 drawing 11]	9%	79%	12%	81%	–
CC1(C)CCC(C)(C)c2cc([N+]([O-])=Nc3ccc(C(=O)O)cc3)ccc21 [H drawing 12 H H OH drawing 13]	7%	53%	40%	70%	–
CC1(C)CCC(C)(C)c2cc(NC(=O)c3ccc(C(=O)O)cc3)ccc21 [No. 35, p-(5,6,7,8-tetrahydro-5,5,8,8-tetramethyl-2-naphthylcarbamoyl)benzoic acid]	19%	78%	3%	98%	tumor growth was clearly suppressed
CC1=C(/C=C/C(C)=C/C=C/C(C)=C/C(=O)O)C(C)(C)CCC1 [Retinoic acid, reference compound]	4%	71%	25%	75%	–
CC(C)(C)c1ccc(C(=O)C=Cc2ccc(C(=O)O)cc2)cc1 [No. 9]	6%	48%	46%	68%	–
